In patent US20210015793A1, “COMPOUNDS FOR TREATING CNS- AND NEURODEGENERATIVE DISEASES” (ETH ZURICH, priority 2018, published 2021):
“Also recorded” adds a separate entry of the source.

Test system: Tg2576 AD mice
Test: Hippocampal neuronal cell bodies by direct binding assay with [125I]-labeled anti-NeuN antibody, Tg2576 mice subjected to CUMS
Type: in vivo, mouse
Details: 15-month-old Tg2576 mice, 3 months of CUMS with treatment, vs untreated stressed controls
Text: For a genetic model of familial AD (FAD), Tg2576 mice (Taconic Biosciences, Rensselaer, N.Y., USA) were used with neuron-specific overexpression of human APPSwe, i.e the Swedish mutation of APP695 isolated from a Swedish family with FAD featuring the double mutation K670N/M671L (Hsiao et al., Science 274, 99-103 (1996)). As a genetic model of tauopathy, the Tg-TauP301L mice (Model 2508, Taconic Biosciences, Rensselaer, N.Y., USA) with neuron-specific expression of the most common FTDP-17 (frontotemporal dementia and parkinsonism linked to chromosome 17) mutation (Lewis et al., Nature Genetics 25, 402-405 (2000)) were used. […]
Neuronal cell loss and hyperphosphorylated PHF Tau were determined in hippocampi of 15 months-old Tg2576 mice, which were treated without or with Compound-1 and Compound-4 for three months during the neurodegeneration-enhancing CUMS (chronic unpredictable mild stress) protocol. Neuronal cell loss was determined with crude homogenates of dissected hippocampi by direct binding assay with the neuron-specific [125]-labeled anti-NeuN antibody (MAB377, clone A60, EMD Millipore, Merck KGaA, Darmstadt, Germany). Similarly, the neuronal cell loss-causing PHF tau hyperphosphorylation was quantified with [125]-labeled AT8 antibody. […]

O=C(C1=C(O)C(c2ccccc2)N(c2ccc3c(c2)OCO3)C1=O)C1CC1 (centres unmarked) [Compound-1, 1-(1,3-benzodioxol-5-yl)-4-(cyclopropane-carbonyl)-3-hydroxy-2-phenyl-2H-pyrrol-5-one]
hippocampal neuronal loss (anti-NeuN antibody binding): retarded hippocampal neuronal loss; also recorded: significantly retarded the loss of hippocampal neurons

O=C(C1=C(O)C(c2ccc(F)cc2)N(c2ccc3c(c2)OCO3)C1=O)C1CC1 (centres unmarked) [Compound-1F, 1-(1,3-Benzodioxol-5-yl)-4-(cyclopropanecarbonyl)-2-(4-fluorophenyl)-3-hydroxy-2H-pyrrol-5-one]
hippocampal neuronal loss (anti-NeuN antibody binding): retarded hippocampal neuronal loss
